Assay results published in US6080735A, “Estra-1,3,5(10)-trien derivatives, processes for their preparation and pharmaceutical compositions containing these compounds” (priority 1994, dated 2000).
Where two headings read alike, the source gives them in different places.

Key:
liver = details: cited from earlier work
[1] = cited from earlier work
[2] = Blood level after oral application to ovariectomised rats; format: in vivo; details: ovariectomised rat, 10 μg/animal/d p.o., d1 to d7
Method: Evidence was provided to hepatic estrogenicity in ovariectomised rats: The adult female experimental animals (breeder: HSD/WIN:WU) were ovariectomised (Day […]). Treatment with one daily oral application of test substances was started two weeks after ovariectomy.
Start and end of treatment were defined as Day 1 (=d1) or Day 7 (=d7). The animals were sacrificed on Day 8. Several organs (uterus, adrenal glands, liver) were removed and weighed and were passed on in deep-frozen condition (-196° C.) for further investigation.
Blood was taken from the retrobulbar plexus prior to treatment (d0) as well as on (d4) and (d8), with the animals etherized. The serum thus obtained was used to determine IGF1, angiotensin I, cholesterol and HDL cholesterol.

[3] = test system: uterus (ovariectomised rats); test: Uterus weight after oral treatment of ovariectomised rats (oral estrogen effects, sexual function); format: in vivo; details: ovariectomised rat, 10 μg/animal/d p.o., d1 to d7
Excerpt: The adult female experimental animals (breeder: HSD/WIN:WU) were ovariectomised (Day […]). Treatment with one daily oral application of test substances was started two weeks after ovariectomy. All animals were assigned to groups by randomised approach. The experiment was a block design. All animals were weighed twice, prior to and at the end of the experiment. Start and end of treatment were defined as Day 1 (=d1) or Day 7 (=d7). The animals were sacrificed on Day 8. Several organs (uterus, adrenal glands, liver) were removed and weighed and were passed on in deep-frozen condition (-196° C.) for further investigation.

angiotensin = details: EE 30 μg to 20 μg with 150 μg gestagen (desogestrel), cited from earlier work
[4] = cited from earlier work; remark: listed apart in the source
[5] = 0-24 hours from application, Goldzieher

## CC/C(=C(/CC)c1ccc(O)cc1)c1ccc(O)cc1 [DES]
liver; oral, compared with conjugated and natural estrogens
  Hepatic estrogenicity, in words: Even stronger hepatic estrogenicity

## C[C@]12CC[C@@H]3c4ccc(O)cc4CC[C@H]3[C@@H]1CC[C@@H]2O [Estradiol (E2), estradiol]
[1]; in vivo, po
  Bioavailability after oral application: tends to be minimised
[2]
  Blood level: 0.0192 ng/mL (serum)
[3]
  Uterus weight: 182 mg

## C[C@]12CC[C@@H]3c4ccc(O)cc4CC[C@H]3[C@@H]1C[C@@H](O)[C@@H]2O [Estriol (E3), estriol]
[1]; in words
  Bioavailability after oral application: tends to be minimised

## C#C[C@]1(O)CC[C@H]2[C@@H]3CCc4cc(O)ccc4[C@H]3CC[C@@]21C [Ethinyl estradiol (EE), ethinyl estradiol]
[2]
  Blood level: 0.0289 ng/mL (serum)
liver; in vivo, po
  Hepatic estrogenicity, in words: Even stronger hepatic estrogenicity
liver; in vivo
  Estrogenic effectiveness in the liver relative to orally administered natural estrogens: eight to ten times as high
angiotensin; six months
  Effect of dose reduction on increased angiotensin levels: marginally reduced values
angiotensin; three months
  Effect of dose reduction on increased angiotensin levels: did not result in reduction
[4]; [5]
  highest AUC recorded: 2.121 ng·h/mL
  lowest AUC: 0.284 ng·h/mL
[4]; human, oral, in words
  Oral bioavailability compared with natural estrogens: much better in bioavailability
[3]
  Uterus weight: 353 mg

## CN(C)S(=O)(=O)Oc1ccc2c(c1)CC[C@@H]1[C@@H]2CC[C@]2(C)[C@@H](O)C[C@@H]3C[C@]312 [J 982, 17β-hydroxy-14α,15α-methylene-estra-1,3,5(10)-trien-3-yl N,N-dimethylsulfamate]
[3]
  Uterus weight: 193 mg

## CCN(CC)S(=O)(=O)Oc1ccc2c(c1)CC[C@@H]1[C@@H]2CC[C@]2(C)[C@@H](O)C[C@@H]3C[C@]312 [J 983, 17β-hydroxy-14α,15α-methylene-estra-1,3,5(10)-trien-3-yl N,N-diethylsulfamate]
[3]
  Uterus weight: 349 mg

## CCN(CC)S(=O)(=O)Oc1ccc2c(c1)CC[C@@H]1[C@@H]2CC[C@]2(C)[C@@H](O)[C@H](O)C[C@@H]12 [J 984, 16α,17β-dihydroxy-estra-1,3,5(10)-trien-3-yl N,N-diethylsulfamate]
[3]
  Uterus weight: 246 mg

## CN(C)S(=O)(=O)Oc1ccc2c(c1)CC[C@@H]1[C@@H]2CC[C@]2(C)[C@@H](O)[C@H](O)C[C@@H]12 [J 989, 16α,17β-dihydroxy-estra-1,3,5(10)-trien-3-yl N,N-dimethylsulfamate]
[3]
  Uterus weight: 183 mg

## C[C@]12CC[C@@H]3c4ccc(OS(=O)(=O)O)cc4CC[C@H]3[C@@H]1CCC2=O [estrone sulphate]
[1]; in words
  Bioavailability after oral application: tends to be minimised

## C[C@]12CC[C@@H]3c4ccc(O)cc4CC[C@H]3[C@@H]1CCC2=O [estrone]
[1]; in vivo, po
  Bioavailability after oral application: tends to be minimised
